# According to US20230116972A1, “CD38 MODULATORS AND METHODS OF USE THEREOF” (Cytokinetics, Inc., priority 2021, published 2023):
# Experiments:
# human CD38 = target: T1, human CD38 (Homo sapiens, UniProt P28907); experiment: human recombinant CD38 enzyme assay (hydrolysis of NAD+); type: biochemical; conditions: human recombinant CD38, 0.4 nM enzyme, 62.5 μM NAD+; read-out: hCD38 BioChem IC50
# T1 sequence (P28907 1-300): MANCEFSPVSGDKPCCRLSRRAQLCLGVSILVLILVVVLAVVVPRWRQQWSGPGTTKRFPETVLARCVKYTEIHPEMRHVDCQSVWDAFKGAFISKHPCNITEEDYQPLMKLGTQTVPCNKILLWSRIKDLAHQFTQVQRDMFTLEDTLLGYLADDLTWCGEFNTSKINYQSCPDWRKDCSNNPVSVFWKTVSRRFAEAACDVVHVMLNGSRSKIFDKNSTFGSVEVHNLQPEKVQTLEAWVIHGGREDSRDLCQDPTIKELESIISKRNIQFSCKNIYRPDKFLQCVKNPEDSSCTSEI
# Procedure, shortened: (§1)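 Inhibitors were titrated against purified CD38 hydrolysing NAD+ for 60 min at ambient temperature. Unconsumed substrate was quantified enzymatically via NADH-coupled resazurin reduction and fluorescence.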
# mouse CD38 = target: T2, mouse CD38 (Mus musculus, UniProt P56528); experiment: mouse recombinant CD38 enzyme assay (hydrolysis of NAD+); type: biochemical; conditions: read-out: mCD38 BioChem IC50
# T2 sequence (P56528 1-304): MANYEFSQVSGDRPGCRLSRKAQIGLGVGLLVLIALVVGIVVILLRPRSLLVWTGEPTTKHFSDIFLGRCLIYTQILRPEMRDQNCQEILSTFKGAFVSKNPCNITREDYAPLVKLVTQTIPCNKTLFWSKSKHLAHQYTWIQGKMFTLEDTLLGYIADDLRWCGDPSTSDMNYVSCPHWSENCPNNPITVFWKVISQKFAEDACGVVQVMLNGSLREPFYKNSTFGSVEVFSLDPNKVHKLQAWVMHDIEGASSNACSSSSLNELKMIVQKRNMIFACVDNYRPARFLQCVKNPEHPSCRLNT
# Procedure, shortened: as §1
# [1] = target: T3, endogenous CD38 in HL60 cells (Homo sapiens, UniProt P28907); experiment: cellular CD38 assay in HL60 cells (cellular NAD levels); type: cell-based; conditions: all-trans retinoic acid, 24 hours, read-out: hCD38 HL60 ATRA NAD Cell Diaphorase IC50
# T3 construct: endogenous in cells; host or cells: HL60 (leukemic cells, treated with all-trans retinoic acid)
# T3 sequence (P28907 1-300): T1 sequence (P28907 1-300)
# Procedure, shortened: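 HL60 cells (20000/well) were treated with compound in DMSO for 24 h. Cellular NAD was then measured by an enzymatic cycling mix (alcohol dehydrogenase, diaphorase, 40 uM resazurin, 10 uM FMN, 3% ethanol, Triton X-100, pH 8.4).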
SMILES,IC50 (human CD38),IC50 (mouse CD38),IC50 [1]
"Cn1cncc1-c1nc(C(=O)Nc2ccc(C(F)(F)F)nc2)cc(C2CCC(F)(F)CC2)n1 [Compound 285, 6-(4,4-difluorocyclohexyl)-2-(1-methyl-1H-imidazol-5-yl)-N-(6-(trifluoromethyl)pyridin-3-yl)pyrimidine-4-carboxamide]",8.6 nM,1 nM,1240 nM
"Cc1cc(C(=O)N[C@H]2CC[C@H](C(F)F)CC2)nc(-c2cncn2C)n1 [Compound 122, N-((1r,4r)-4-(difluoromethyl)cyclohexyl)-6-methyl-2-(1-methyl-1H-imidazol-5-yl)pyrimidine-4-carboxamide]",10 nM,1 nM,1010 nM
"Cn1cncc1-c1ccnc(C(=O)Nc2ccc(OC(F)F)nc2)n1 [Compound 276, N-(6-(difluoromethoxy)pyridin-3-yl)-4-(1-methyl-1H-imidazol-5-yl)pyrimidine-2-carboxamide]",1.4 nM,4.4 nM,209 nM
"COc1cc(C(=O)Nc2ccc(C(F)F)nc2)nc(-c2cncs2)c1 [Compound 163, N-(6-(Difluoromethyl)pyridin-3-yl)-4-methoxy-6-(thiazol-5-yl)picolinamide]",375 nM,82 nM,11700 nM
"COCCOc1cc(C(=O)Nc2ccc(C(F)(F)F)nc2)nc(-n2ccnc2)c1 [Compound 245, 6-(1H-imidazol-1-yl)-4-(2-methoxyethoxy)-N-(6-(trifluoromethyl)pyridin-3-yl)picolinamide]",2.8 nM,1 nM,749 nM
"Cn1cncc1-c1ccnc(C(=O)N[C@H]2C[C@@H](c3ccccc3)C2)n1 [Compound 214, 4-(1-methyl-1H-imidazol-5-yl)-N-((1s,3s)-3-phenylcyclobutyl)pyrimidine-2-carboxamide]",323 nM,52.9 nM,9860 nM
"Cn1cncc1-c1nc(C(=O)N[C@H]2C[C@H](C(C)(C)O)C2)cc(C2CCOCC2)n1 [Compound 283, N-((1r,3r)-3-(2-hydroxypropan-2-yl)cyclobutyl)-2-(1-methyl-1H-imidazol-5-yl)-6-(tetrahydro-2H-pyran-4-yl)pyrimidine-4-carboxamide]",18.4 nM,4.3 nM,5690 nM
"Cn1cncc1-c1nccc(C(=O)N[C@H]2CC[C@H](C)CC2)n1 [Compound 85, 2-(1-methyl-1H-imidazol-5-yl)-N-((1r,4r)-4-methylcyclohexyl)pyrimidine-4-carboxamide]",7 nM,2 nM,765 nM
"CC(=O)N1CC2(CC(NC(=O)c3cccc(-n4ccnc4)n3)C2)C1 [Compound 47, N-(2-acetyl-2-azaspiro[3.3]heptan-6-yl)-6-(1H-imidazol-1-yl)picolinamide]",417 nM,100 nM,9150 nM
"COCCOc1cc(-c2cncn2C)nc(C(=O)Nc2ccc(C(F)(F)F)nc2)n1 [Compound 233, 4-(2-methoxyethoxy)-6-(1-methyl-1H-imidazol-5-yl)-N-(6-(trifluoromethyl)pyridin-3-yl)pyrimidine-2-carboxamide]",6 nM,1.1 nM,1040 nM
"Cn1cncc1-c1ccnc(C(=O)N[C@H]2C[C@H](Oc3ccccc3)C2)n1 [Compound 220, 4-(1-methyl-1H-imidazol-5-yl)-N-((1r,3r)-3-phenoxycyclobutyl)pyrimidine-2-carboxamide]",146 nM,52.2 nM,4950 nM
"Cn1cncc1-c1cccc(C(=O)Nc2cccnc2)n1 [Compound 59, 6-(1-Methyl-1H-imidazol-5-yl)-N-(pyridin-3-yl)picolinamide]",25 nM,18 nM,769 nM
"O=C(N[C@H]1CC[C@H](CO)CC1)c1nccc(-n2ccnc2)n1 [Compound 261, N-((1r,4r)-4-(hydroxymethyl)cyclohexyl)-4-(1H-imidazol-1-yl)pyrimidine-2-carboxamide]",86.3 nM,39.1 nM,3100 nM
"Cn1cncc1-c1nc(C(=O)N[C@H]2CC[C@H](C(F)F)CC2)cc(C2CCOCC2)n1 [Compound 227, N-((1r,4r)-4-(difluoromethyl)cyclohexyl)-2-(1-methyl-1H-imidazol-5-yl)-6-(tetrahydro-2H-pyran-4-yl)pyrimidine-4-carboxamide]",9.3 nM,2.4 nM,2070 nM
"C[C@H]1CC[C@H](NC(=O)c2cncc(-n3ccnc3)n2)CC1 [Compound 102, 6-(1H-imidazol-1-yl)-N-((1r,4r)-4-methylcyclohexyl)pyrazine-2-carboxamide]",23 nM,7 nM,1010 nM
"Cn1cncc1-c1cc(C2CC2)nc(C(=O)Nc2ccc(C(F)F)nc2)n1 [Compound 206, 4-cyclopropyl-N-(6-(difluoromethyl)pyridin-3-yl)-6-(1-methyl-1H-imidazol-5-yl)pyrimidine-2-carboxamide]",3.9 nM,1.7 nM,576 nM
"O=C(Nc1ccc(F)cc1)c1cccc(-n2ccnc2)n1 [Compound 19, N-(4-fluorophenyl)-6-(1H-imidazol-1-yl)picolinamide]",7 nM,9 nM,345 nM
"O=C(Nc1ccc(F)cc1F)c1cccc(-n2ccnc2)n1 [Compound 24, N-(2,4-difluorophenyl)-6-(1H-imidazol-1-yl)picolinamide]",104 nM,45 nM,1660 nM
"O=C(Nc1cccnc1)c1cccc(-c2cncs2)n1 [Compound 11, N-(pyridin-3-yl)-6-(thiazol-5-yl)picolinamide]",2110 nM,741 nM,8050 nM
"COc1ncc(-c2cncn2C)nc1C(=O)N[C@H]1CC[C@H](OC)CC1 [Compound 303, 3-methoxy-N-((1r,4r)-4-methoxycyclohexyl)-6-(1-methyl-1H-imidazol-5-yl)pyrazine-2-carboxamide]",296 nM,62.4 nM,10400 nM
"COC(=O)N1CC2(CC(NC(=O)c3cccc(-n4ccnc4)n3)C2)C1 [Compound 48, methyl 6-(6-(1H-imidazol-1-yl)picolinamido)-2-azaspiro[3.3]heptane-2-carboxylate]",244 nM,46 nM,3760 nM
"COCCO[C@H]1CC[C@H](NC(=O)c2cc(C(F)(F)F)nc(-n3ccnc3)n2)CC1 [Compound 157, 2-(1H-imidazol-1-yl)-N-((1r,4r)-4-(2-methoxyethoxy)cyclohexyl)-6-(trifluoromethyl)pyrimidine-4-carboxamide]",121 nM,48 nM,7230 nM
"CC(C)c1cc(C(=O)Nc2ccc(C(F)F)nc2)nc(-n2ccnc2)n1 [Compound 169, N-(6-(difluoromethyl)pyridin-3-yl)-2-(1H-imidazol-1-yl)-6-isopropylpyrimidine-4-carboxamide]",22 nM,15 nM,2250 nM
"Cn1cncc1-c1nc(C(=O)N[C@H]2CCc3c(F)cccc32)cc(C2CCOCC2)n1 [Compound 228, (S)-N-(4-fluoro-2,3-dihydro-1H-inden-1-yl)-2-(1-methyl-1H-imidazol-5-yl)-6-(tetrahydro-2H-pyran-4-yl)pyrimidine-4-carboxamide]",16.2 nM,4.7 nM,3880 nM
"COc1cc(C(=O)Nc2ccc(C(F)(F)F)nc2)nc(-c2cncn2C)c1 [Compound 226, 4-methoxy-6-(1-methyl-1H-imidazol-5-yl)-N-(6-(trifluoromethyl)pyridin-3-yl)picolinamide]",20.4 nM,12.7 nM,5210 nM
"CO[C@H]1CC[C@H](NC(=O)c2cc(C)nc(-n3ccnc3)n2)CC1 [Compound 118, 2-(1H-imidazol-1-yl)-N-((1r,4r)-4-methoxycyclohexyl)-6-methylpyrimidine-4-carboxamide]",17 nM,3 nM,1620 nM
"CO[C@H]1CC[C@H](NC(=O)c2cc(C)cc(-c3cncn3C)n2)CC1 [Compound 98, N-(4-methoxycyclohexyl)-4-methyl-6-(1-methyl-1H-imidazol-5-yl)picolinamide]",106 nM,10 nM,4740 nM
"Cn1cncc1-c1ccnc(C(=O)Nc2ccc(C(F)F)nc2)n1 [Compound 147, N-(6-(difluoromethyl)pyridin-3-yl)-4-(1-methyl-1H-imidazol-5-yl)pyrimidine-2-carboxamide]",2 nM,6 nM,151 nM
